Assay results as given in patent publication US20240150321A1, “PYRAZOLYLSULFONAMIDE COMPOUNDS AND THEIR USE IN THERAPY” (HOTSPOT THERAPEUTICS, INC., priority 2022, published 2024).
Like-named read-outs stand apart in the source and are kept apart here.

Experiments:
Avi-tagged FL MALT-1 = Avi-tagged FL MALT-1 (Homo sapiens (Human), UniProt Q9UDY8); test: MALT-1 Fluorogenic Peptide Cleavage Assay (MALT1 inhibition assay); format: biochemical; conditions: Ac-LRSR-AMC peptide substrate, 30 min pre-incubation, 90 min reaction at room temperature
Procedure: Inhibition of MALT1 activity by the presence of small molecules was evaluated using MALT-1 Fluorogenic Peptide Cleavage Assay. The assay utilizes a quenched AMC-labelled peptide that contains the MALT-1 recognition sequence and cleavage site (LRSR). MALT-1 mediated cleavage of the peptide relieves the quenching and leads to an increase in fluorescence at excitation (342 nm) and emission (441 nm).
The following reagents were obtained commercially and used to prepare standard reagent formulations as further described below: N-2-hydroxyethylpiperazine-N-2-ethane sulfonic acid (HEPES) (1 M, pH 7.5, stored at 4° C.), sodium citrate (stored at RT), tris(2-carboxyethyl) phosphine hydrochloride (T-CEP) (500 mM, stored at −20° C.), ethylenediaminetetraacetic acid (EDTA) (500 mM, stored at RT), dimethylsulfoxide (DMSO, stored at RT), 3-[(3-cholamido-propyl)dimethylammonio]-1-propane sulphate (CHAPS) (stored at RT), dimethylsulfoxide (DMSO), DMSO (Fisher Scientific, stored at RT), Avi-tagged FL MALT-1 (Pharmaron, stored at −70° C.), Ac-LRSR-AMC Peptide (SM Biochemicals, stored at −20° C.)., and ultrapure water (MILLLI-Q©).
The standard reagent formulations used in this assay were prepared and stored as follows. A 1.1 M solution of sodium citrate (161.3 g, 500 mL) was prepared and stored at room temperature. A 10% (w/v) CHAPS solution (2.0 g, 20 mL) was prepared and stored at 4° C. A 500 mM HEPES solution having pH of 6.89 was prepared from 200 mL of a 1 M HEPES solution having a pH of 7.5 using concentrated hydrochloric acid and brought to a final volume of 400 mL with MILLI-Q© H2O. The substrate, 10 mM Ac-LRSR-AMC Peptide, was prepared (10 mg, 1.370 mL DMSO) and stored at −20° C.
Compounds were plated to provide a 2% DMSO final concentration using a ProxiPlate-384 Plus F Black 384-shallow well microplate. The assay-ready plates were equilibrated to room temperature. A reaction buffer (30 mL total volume) was prepared by combining HEPES (pH 6.89, 25 mM, 1.5 mL), sodium citrate (660 mM, 18.0 mL), T-CEP (1 mM, 0.06 mL), EDTA ([…], 0.06 mL), CHAPS (0.05%, 0.15 mL), DMSO (2%, 0.6 mL), and MILLI-Q© H2O (10.23 mL; 9.63 mL when backfilled to 2% DMSO) followed by thorough mixing. DMSO was added only when compound plates had not been DMSO-backfilled to 2%.
MALT-1 was thawed and kept on ice. Peptide substrate was thawed on the bench under ambient conditions. A MALT-1 enzyme working stock was prepared from Avi-tagged FL MALT-1 (40 nM in a prepared reagent volume of 16.5 μL) and the reaction buffer (13.0 mL). MALT1 working stock (5 μL) was added to each well of the microplate. MALT-1 was pre-incubated with compounds for 30 minutes at room temperature.
Two substrate working stocks (Km and 10×Km) were prepared. The 1×Km substrate was prepared from Ac-LRSR-AMC Peptide (50 μM in a prepared reagent volume of 35.0 μL) and the reaction buffer (6.965 mL). The 10×Km substrate was prepared from Ac-LRSR-AMC Peptide (280 μM in a prepared reagent volume of 196.0 μL) and the reaction buffer (6.804 mL). The reaction was initiated by the addition of substrate working stock (5 μL, 50 μM) to Km plates and the addition of substrate working stock (5 μL 280 μM) to 10×Km plates. The plates were covered and incubated on the bench at room temperature for 90 minutes.
Fluorescence intensity was determined using a CLARIOstar microplate reader (BMG LABTECH) using the optimised AMC mode. Before taking readings, a 70% gain was applied on the neutral control well. Compound data were normalised to % Inhibition and used to plot sigmoidal concentration response curves to yield various parameters including IC50.

[1] = system: NF-kB reporter in Jurkat cells; test: NF-kB reporter assay in Jurkat cells stimulated with aCD3/aCD28/PMA; format: cell-based; conditions: Jurkat cells, 1 hr compound pre-incubation, aCD3/aCD28/PMA stimulation 4 hr, One-Glo readout, read-out: NF-kB Reporter Assay IC50
Procedure: Jurkat cells were maintained in complete RPMI 1640 media supplemented with 10% FBS. Prior to the assay, 120 nL of the serial diluted compound was added in each well of 384-well flat bottom white plate (Corning #3570) by using liquid handler Echo550. Jurkat cells were harvested by centrifugation at 120 g for 10 min and resuspended in fresh RPMI 1640 media without serum. […] (25,000 cells) were seeded in each well of 384-well plate containing compound. After 1 hr incubation at 37° C. in a 5% CO2 incubator, […] of diluted aCD3/aCD28/PMA (final concentration at […] and […], respectively) in RPMI 1640 without serum were added to each well. After incubation at 37° C. in 5% CO2 for 4 hr, […] of One-Glo reagent (Promega #E6120) was added into each well. The plate was left at room temperature for 5 min and the signal was measured on EnVision (PerkinElmer).
Compounds in which an IC50 was not measured are designated as “N/A”.

Sequence of Avi-tagged FL MALT-1 (Q9UDY8 whole entry): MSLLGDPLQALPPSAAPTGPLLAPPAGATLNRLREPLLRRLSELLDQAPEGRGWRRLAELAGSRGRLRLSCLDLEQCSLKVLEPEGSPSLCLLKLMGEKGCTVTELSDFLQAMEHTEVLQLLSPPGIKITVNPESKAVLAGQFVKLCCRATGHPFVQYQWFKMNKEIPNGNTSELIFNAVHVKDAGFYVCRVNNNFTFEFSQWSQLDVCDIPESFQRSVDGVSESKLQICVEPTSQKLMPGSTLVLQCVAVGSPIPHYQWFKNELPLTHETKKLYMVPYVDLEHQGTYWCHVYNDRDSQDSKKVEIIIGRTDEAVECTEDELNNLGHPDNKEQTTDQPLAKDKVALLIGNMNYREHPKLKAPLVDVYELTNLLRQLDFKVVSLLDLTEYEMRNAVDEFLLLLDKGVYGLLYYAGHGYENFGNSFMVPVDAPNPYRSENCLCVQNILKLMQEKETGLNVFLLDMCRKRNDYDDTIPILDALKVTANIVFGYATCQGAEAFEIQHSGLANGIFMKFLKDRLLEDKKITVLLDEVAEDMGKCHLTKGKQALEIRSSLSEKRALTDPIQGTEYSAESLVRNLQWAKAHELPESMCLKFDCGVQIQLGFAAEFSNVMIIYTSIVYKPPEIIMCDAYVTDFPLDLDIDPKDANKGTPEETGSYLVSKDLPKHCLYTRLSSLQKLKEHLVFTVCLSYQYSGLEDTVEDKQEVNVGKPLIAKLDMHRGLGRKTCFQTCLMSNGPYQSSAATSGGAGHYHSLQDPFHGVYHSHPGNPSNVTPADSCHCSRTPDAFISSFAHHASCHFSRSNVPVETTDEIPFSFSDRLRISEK

| Structure (SMILES) | IC50 (Avi-tagged FL MALT-1) [nM] | IC50 ([1]; Homo sapiens) [nM] | IC50 [1] [nM] |
| --- | --- | --- | --- |
| Cn1ncc2cccc(NS(=O)(=O)c3cnn(-c4cc(C5(O)CCOC5)ccn4)c3)c21 (stereo in doubt) [Compound I-310, (S)-1-(4-(3-hydroxytetrahydrofuran-3-yl)pyridin-2-yl)-N-(1-methyl-1H-indazol-7-yl)-1H-pyrazole-4-sulfonamide] | > 2500 | < 400 | – |
| Cn1ncc2cccc(NS(=O)(=O)c3cnn(-c4cc(C5(O)CCOC5)ccn4)c3)c21 (stereo in doubt) [Compound I-312, (R)-1-(4-(3-hydroxytetrahydrofuran-3-yl)pyridin-2-yl)-N-(1-methyl-1H-indazol-7-yl)-1H-pyrazole-4-sulfonamide] | > 2500 | < 400 | – |
| CCc1ccc2cnn(C)c2c1NS(=O)(=O)c1cnn(-c2ccc(C(F)(F)F)cn2)c1 [Compound I-1, 3N-(6-Ethyl-1-Methyl-1H-Indazol-7-yl)-1-(5-(Trifluoromethyl)Pyridin-2-yl)-1H-Pyrazole-4-Sulfonamide] | ≤ 400 | < 400 | – |
| CCc1ccc2cnn(C)c2c1NS(=O)(=O)c1cnn(-c2ccnc(C(F)(F)F)c2)c1 [Compound I-2, N-(6-Ethyl-1-Methyl-1H-Indazol-7-yl)-1-(2-(Trifluoromethyl) Pyridin-4-yl)-1H-Pyrazole-4-Sulfonamide] | ≤ 400 | < 400 | – |
| CCc1ccc2cnn(C)c2c1NS(=O)(=O)c1cnn(-c2cncc(C(F)(F)F)c2)c1 [Compound I-3, N-(6-Ethyl-1-Methyl-1H-Indazol-7-yl)-1-(5-(Trifluoromethyl) Pyridin-3-yl)-1H-Pyrazole-4-Sulfonamide] | ≤ 400 | < 400 | – |
| COc1ccc2cnn(C)c2c1NS(=O)(=O)c1cnn(-c2ccnc(C(F)(F)F)c2)c1 [Compound I-4, N-(6-Methoxy-1-Methyl-1H-Indazol-7-yl)-1-(2-(Trifluoromethyl)Pyridin-4-yl)-1H-Pyrazole-4-Sulfonamide] | ≤ 400 | < 400 | – |
| Cn1ncc2ccc(CC#N)c(NS(=O)(=O)c3cnn(-c4ccnc(C(F)(F)F)c4)c3)c21 [Compound I-6, N-(6-(Cyanomethyl)-1-Methyl-1H-Indazol-7-yl)-1-(2-(Trifluoromethyl)Pyridin-4-yl)-1H-Pyrazole-4-Sulfonamide] | 400 to 1000 | 1000 to 2500 | – |
| CN(C)c1ccc2cnn(C)c2c1NS(=O)(=O)c1cnn(-c2ccnc(C(F)(F)F)c2)c1 [Compound I-7, N-(6-(Dimethylamino)-1-Methyl-1H-Indazol-7-yl)-1-(2-(Trifluoromethyl)Pyridin-4-yl)-1H-Pyrazole-4-Sulfonamide] | ≤ 400 | 400 to 1000 | – |
| C#Cc1ccc2cnn(C)c2c1NS(=O)(=O)c1cnn(-c2ccnc(C(F)(F)F)c2)c1 [Compound I-8, N-(6-Ethynyl-1-Methylindazol-7-yl)-1-(2-(Trifluoromethyl) Pyridin-4-yl)-Pyrazole-4-Sulfonamide] | ≤ 400 | 400 to 1000 | – |
| CCOc1ccc2cnn(C)c2c1NS(=O)(=O)c1cnn(-c2ccnc(C(F)(F)F)c2)c1 [Compound I-9, N-(6-Ethoxy-1-Methyl-1H-Indazol-7-yl)-1-(2-(Trifluoromethyl)Pyridin-4-yl)-1H-Pyrazole-4-Sulfonamide] | ≤ 400 | 400 to 1000 | – |
| CC(C)Oc1ccc2cnn(C)c2c1NS(=O)(=O)c1cnn(-c2ccnc(C(F)(F)F)c2)c1 [Compound I-10, N-(6-Isopropoxy-1-Methyl-1H-Indazol-7-yl)-1-(2-(Trifluoromethyl)Pyridin-4-yl)-1H-Pyrazole-4-Sulfonamide] | ≤ 400 | 400 to 1000 | – |

The remaining lines, values ahead:

| IC50 (Avi-tagged FL MALT-1) [nM] | IC50 ([1]; Homo sapiens) [nM] | IC50 [1] [nM] | Structure (SMILES) |
| --- | --- | --- | --- |
| ≤ 400 | < 400 | – | CCC(C)(OC)c1ccnc(-n2cc(S(=O)(=O)Nc3c(OC)ccc4cnn(C)c34)cn2)c1 (single isomer, unassigned) [Compound I-360, N-(6-methoxy-1-methyl-1H-indazol-7-yl)-1-(4-(2-methoxybutan-2-yl)pyridin-2-yl)-1H-pyrazole-4-sulfonamide] |
| ≤ 400 | – | < 400 | CCC(C)(OC)c1ccnc(-n2cc(S(=O)(=O)Nc3c(OC)ccc4cnn(C)c34)cn2)c1 (single isomer, unassigned) [Compound I-361, N-(6-methoxy-1-methyl-1H-indazol-7-yl)-1-(4-(2-methoxybutan-2-yl)pyridin-2-yl)-1H-pyrazole-4-sulfonamide] |
| 400 to 1000 | < 400 | – | COc1ccc2cnn(C)c2c1NS(=O)(=O)c1cnn(-c2cc(C3(OC)CC(C)C3)ccn2)c1 (single isomer, unassigned) [Compound I-364, N-(6-methoxy-1-methyl-1H-indazol-7-yl)-1-(4-(1-methoxy-3-methylcyclobutyl)pyridin-2-yl)-1H-pyrazole-4-sulfonamide] |
| ≤ 400 | – | < 400 | COc1ccc2cnn(C)c2c1NS(=O)(=O)c1cnn(-c2cc(C3(OC)CC(C)C3)ccn2)c1 (single isomer, unassigned) [Compound I-365, N-(6-methoxy-1-methyl-1H-indazol-7-yl)-1-(4-(1-methoxy-3-methylcyclobutyl)pyridin-2-yl)-1H-pyrazole-4-sulfonamide] |
| 400 to 1000 | < 400 | – | COc1ccc2cnn(C)c2c1NS(=O)(=O)c1cnn(-c2cc(C3(F)CC(F)C3)ccn2)c1 (single isomer, unassigned) [Compound I-377, 1-(4-(1,3-difluorocyclobutyl)pyridin-2-yl)-N-(6-methoxy-1-methyl-1H-indazol-7-yl)-1H-pyrazole-4-sulfonamide] |
| ≤ 400 | – | < 400 | COc1ccc2cnn(C)c2c1NS(=O)(=O)c1cnn(-c2cc(C3(F)CC(F)C3)ccn2)c1 (single isomer, unassigned) [Compound I-378, 1-(4-(1,3-difluorocyclobutyl)pyridin-2-yl)-N-(6-methoxy-1-methyl-1H-indazol-7-yl)-1H-pyrazole-4-sulfonamide] |
| > 2500 | < 400 | – | CC[C@](C)(OC)c1ccnc(-n2cc(S(=O)(=O)Nc3cccc4cnn(C)c34)cn2)c1 (stereo in doubt) [Compound I-313, 1-(4-(2-methoxybutan-2-yl)pyridin-2-yl)-N-(1-methyl-1H-indazol-7-yl)-1H-pyrazole-4-sulfonamide] |
| > 2500 | < 400 | – | CC[C@@](C)(OC)c1ccnc(-n2cc(S(=O)(=O)Nc3cccc4cnn(C)c34)cn2)c1 (stereo in doubt) [Compound I-314, 1-(4-(2-methoxybutan-2-yl)pyridin-2-yl)-N-(1-methyl-1H-indazol-7-yl)-1H-pyrazole-4-sulfonamide] |
